Our source for the inhibition values is patent US7524853B2 (Solvay Pharmaceuticals B.V., priority 2003, dated 2009).

What all share (assay type): cell-based
The target in experiment [1] is T1, 17β-hydroxysteroid dehydrogenase type 1 (17β-HSD type 1) (Homo sapiens, UniProt P14061).
T1 construct: expressed in transfected cells; host or cells: MCF-7
T1 sequence (P14061 1-328): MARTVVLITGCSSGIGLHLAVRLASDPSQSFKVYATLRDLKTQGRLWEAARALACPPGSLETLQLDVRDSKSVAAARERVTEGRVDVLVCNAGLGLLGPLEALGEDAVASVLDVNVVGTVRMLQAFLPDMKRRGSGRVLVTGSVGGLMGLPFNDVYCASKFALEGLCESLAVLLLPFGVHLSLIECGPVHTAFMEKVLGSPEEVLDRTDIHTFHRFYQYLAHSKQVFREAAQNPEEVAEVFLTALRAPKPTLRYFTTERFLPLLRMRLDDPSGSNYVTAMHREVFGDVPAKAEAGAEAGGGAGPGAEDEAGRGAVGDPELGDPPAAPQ
Description: Inhibition of 17β-HSD type 1 in MCF-7 cells stably expressing the isoenzyme (tritium labeled estrone conversion, HPLC). To be noted: MCF7, MCF-7 cells expressing 17β-HSD type 1, 2 nM tritium labeled estrone; for inhibition at 1 µM: 1 μM test compound, read-out: % Inhibition HSD1 1 μM; for inhibition at 10 µM: 10 μM test compound, read-out: % Inhibition HSD1 10 μM. A digest of the protocol: (§1)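 Compounds are tested at two concentrations on MCF-7 cells carrying a single 17β-HSD isoenzyme, with 2 nM tritiated estrone, estradiol or androstenedione as type 1, 2 or 3 substrate. Percent inhibition reflects lower conversion relative to a compound-free control.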

Experiment [2] deals with T2, 17β-hydroxysteroid dehydrogenase type 2 (17β-HSD type 2) (Homo sapiens, UniProt P37059).
T2 construct: expressed in transfected cells; host or cells: MCF-7
T2 sequence (P37059 1-387): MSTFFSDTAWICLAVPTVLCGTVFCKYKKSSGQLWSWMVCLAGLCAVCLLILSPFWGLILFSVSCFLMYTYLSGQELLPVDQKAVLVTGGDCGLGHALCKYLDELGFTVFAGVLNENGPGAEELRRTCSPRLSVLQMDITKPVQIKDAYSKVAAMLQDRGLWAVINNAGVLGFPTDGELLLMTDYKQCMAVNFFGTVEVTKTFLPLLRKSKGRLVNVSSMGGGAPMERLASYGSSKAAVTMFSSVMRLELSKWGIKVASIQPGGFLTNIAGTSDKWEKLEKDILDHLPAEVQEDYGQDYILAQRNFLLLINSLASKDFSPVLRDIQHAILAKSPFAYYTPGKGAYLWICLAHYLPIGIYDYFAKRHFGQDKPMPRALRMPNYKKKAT
Nature of the experiment: Inhibition of 17β-HSD type 2 in MCF-7 cells stably expressing the isoenzyme (tritium labeled estradiol conversion, HPLC). To be noted: MCF7, MCF-7 cells expressing 17β-HSD type 2, 2 nM tritium labeled estradiol; for inhibition at 1 µM: 1 μM test compound, read-out: % Inhibition HSD2 1 μM; for inhibition at 10 µM: 10 μM test compound, read-out: % Inhibition HSD2 10 μM. The essentials:
as §1

Experiment [3] has as its target T3, 17β-hydroxysteroid dehydrogenase type 3 (17β-HSD type 3) (Homo sapiens, UniProt P37058).
T3 construct: expressed in transfected cells; host or cells: MCF-7
T3 sequence (P37058 1-310): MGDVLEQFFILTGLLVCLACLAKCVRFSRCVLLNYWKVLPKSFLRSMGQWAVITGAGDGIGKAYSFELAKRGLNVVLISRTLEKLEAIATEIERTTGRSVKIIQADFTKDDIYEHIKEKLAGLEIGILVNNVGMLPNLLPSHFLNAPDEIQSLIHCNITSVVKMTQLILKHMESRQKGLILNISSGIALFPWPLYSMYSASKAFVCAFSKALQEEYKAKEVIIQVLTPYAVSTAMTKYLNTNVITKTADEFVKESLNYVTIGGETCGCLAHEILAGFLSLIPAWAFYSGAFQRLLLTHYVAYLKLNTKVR
Nature of the experiment: Inhibition of 17β-HSD type 3 in MCF-7 cells stably expressing the isoenzyme (tritium labeled androstenedione conversion, HPLC). The conditions noted are these: MCF7, MCF-7 cells expressing 17β-HSD type 3, 2 nM tritium labeled androstenedione; for inhibition at 1 µM: 1 μM test compound, read-out: % Inhibition HSD3 1 μM; for inhibition at 10 µM: 10 μM test compound, read-out: % Inhibition HSD3 10 μM. The essentials:
as §1

As usually defined, the inhibition is the drop in the measured response relative to a control, in per cent. Consider `COc1cc(-c2nc3sc4c(c3c(=O)n2Cc2ccccc2)C(C)CCC4)cc(OC)c1OC` (stereo not drawn) [No. 683, 3-Benzyl-5-methyl-2-(3,4,5-trimethoxyphenyl)-5,6,7,8-tetrahydro-3H-benzo[4,5]thieno[2,3-d]pyrimidin-4-one], for which the results for the inhibition at 1 µM in experiment [1], in experiment [2] and in experiment [3] were 16.8%, 9.2% and 8.1%, respectively. In addition, the inhibition at 10 µM in experiment [1] worked out at 32.9%; in experiment [2], 18.8%; in experiment [3] it was 37.7%.
As for `O=c1c2c3c(sc2nc(-c2cccs2)n1Cc1ccccc1)CCCC3` [No. 61, 3-Benzyl-2-thiophen-2-yl-5,6,7,8-tetrahydro-3H-benzo[4,5]thieno[2,3-d]pyrimidin-4-one], the inhibition at 1 µM in experiment [1] came out at 17.7%; in experiment [2], 25.7%; in experiment [3] it was 20%. For the same molecule, the inhibition at 10 µM turned out to be 26.2% in experiment [1], 23.8% in experiment [2] and 26.4% in experiment [3].
Take `CCCCn1c(-c2cc(OC)c(OC)c(OC)c2)nc2sc3c(c2c1=O)CCC(Br)(Br)C3=O` [No. 88, 3-Butyl-7,7-dibromo-2-(3,4,5-trimethoxyphenyl)-6,7-dihydro-3H,5H-benzo[4,5]thieno[2,3-d]pyrimidine-4,8-dione]: the results for the inhibition at 1 µM in experiment [1], in experiment [2] and in experiment [3] were 25%, 25.9% and 20.4%, respectively. The inhibition at 10 µM in experiment [1] was 40.5%; in experiment [2], 29.9%; in experiment [3], 23.3%.
Turning to `COc1cc(-c2nc3sc4c(OC)cccc4c3c(=O)n2CC(C)C)cc(OC)c1OC` [No. 136, 3-Isobutyl-8-methoxy-2-(3,4,5-trimethoxyphenyl)-3H-benzo[4,5]thieno[2,3-d]pyrimidin-4-one], the inhibition at 1 µM in experiment [1] came to 3.6%; in experiment [2], 23.2%; in experiment [3] it was 3.5%. In addition, the inhibition at 10 µM amounted to 8.5% in experiment [1], 8.8% in experiment [2] and 11% in experiment [3].
On to `CCCc1nc2sc3c(c2c(=O)n1Cc1ccco1)CCCC3=O` [No. 102, 3-(Furan-2-ylmethyl)-2-propyl-6,7-dihydro-3H,5H-benzo[4,5]thieno[2,3-d]pyrimidine-4,8-dione], for which the inhibition at 1 µM was determined as 14.8% in experiment [1], 13.6% in experiment [2] and 6.7% in experiment [3]. The inhibition at 10 µM turned out to be 57.5% in experiment [1], 18.6% in experiment [2] and 51.2% in experiment [3].
In the case of `COc1cc(-c2nc3sc4c(c3c(=O)n2CC(C)C)CCC(Br)C4=O)c(Br)c(OC)c1OC` (stereo not drawn) [No. 116, 7-Bromo-2-(2-bromo-3,4,5-trimethoxypheny1)-3-isobutyl-6,7-dihydro-3H,5H-benzo[4,5]thieno[2,3-d]pyrimidine-4,8-dione], the inhibition at 1 µM in experiment [1] came to 12.5%; in experiment [2], 28%; in experiment [3], 8.1%. For the same molecule, the inhibition at 10 µM was 41.4% in experiment [1], 26.1% in experiment [2] and 21.2% in experiment [3].
Consider `CCCCn1c(-c2cc(OC)c(OC)c(OC)c2)nc2sc3c(c2c1=O)CCCC3` [No. 85, 3-Butyl-2-(3,4,5-trimethoxyphenyl)-5,6,7,8-tetrahydro-3H-benzo[4,5]thieno[2,3-d]pyrimidin-4-one], for which the inhibition at 1 µM in experiment [1] is 24.1%; in experiment [2] it was 21.5%; in experiment [3], -2.2%. The inhibition at 10 µM in experiment [1] came to 40.1%; in experiment [2], 25.4%; in experiment [3], 24.4%.
For `CCCc1nc2sc3c(c2c(=O)n1Cc1ccccc1OC)CCCC3=O` [No. 95, 3-(2-Methoxybenzyl)-2-propyl-6,7-dihydro-3H,5H-benzo[4,5]thieno[2,3-d]pyrimidine-4,8-dione], the inhibition at 1 µM in experiment [1] was 17%; in experiment [2], 6.9%; in experiment [3], 9.9%. Besides, the inhibition at 10 µM is 59.6% in experiment [1], 31.2% in experiment [2] and 62.4% in experiment [3].
Consider `O=C(OCCn1c(-c2cccs2)nc2sc3c(c2c1=O)CCCC3)c1cccs1` [No. 69, Thiophene-2-carboxylic acid 2-(4-oxo-2-thiohen-2-yl-5,6,7,8-tetrahydro-4H-benzo[4,5]thieno[2,3-d]pyrimidin-3-yl)-ethyl ester], for which the inhibition at 1 µM is 4.7% in experiment [1], 10.8% in experiment [2] and -1.1% in experiment [3]. Further, the inhibition at 10 µM in experiment [1] is 10.5%; in experiment [2] it was 11.9%; in experiment [3], 3.9%.
Consider `CCCCn1c(-c2cc(OC)c(OC)c(OC)c2)nc2sc3c(O)c(Br)ccc3c2c1=O` [No. 90, 7-Bromo-3-butyl-8-hydroxy-2-(3,4,5-trimethoxyphenyl)-3H-benzo[4,5]thieno[2,3-d]pyrimidin-4-one], for which the figures for the inhibition at 1 µM in experiment [1], in experiment [2] and in experiment [3] were 15.5%, 16.1% and 4%, respectively. Further, the inhibition at 10 µM in experiment [1] is 24.7%; in experiment [2] it was 22%; in experiment [3], 11.3%.
As to `CCSC1=C(CO)CCc2c1sc1nc(-c3ccc(OC)cc3)n(Cc3ccccc3)c(=O)c21` [No. 19], the figures for the inhibition at 1 µM in experiment [1], in experiment [2] and in experiment [3] were 10.2%, 4.9% and 32.7%, respectively. Further, the figures for the inhibition at 10 µM in experiment [1], in experiment [2] and in experiment [3] were 32%, 21.1% and 100%, respectively.
As to `CCCCn1c(-c2ccccc2OC)nc2sc3c(O)cccc3c2c1=O` [No. 633, 3-Butyl-8-hydroxy-2-(2-methoxy-phenyl)-3H-benzo[4,5]thieno[2,3-d]pyrimidin-4-one], the inhibition at 1 µM is 30.6% in experiment [1], 33.2% in experiment [2] and 62.3% in experiment [3]. The inhibition at 10 µM in experiment [1] was found to be 60.9%; in experiment [2], 64.6%; in experiment [3], 91.7%.
Consider `COc1cc(-c2nc3sc4c(c3c(=O)n2Cc2ccccc2)CCC(C=O)=C4Oc2ccccc2)cc(OC)c1OC` [No. 4, 3-Benzyl-4-oxo-8-phenoxy-2-(3,4,5-trimethoxyphenyl)-3,4,5,6-tetrahydro-benzo[4,5]thieno[2,3-d]pyrimidine-7-carbaldehyde], for which the inhibition at 1 µM in experiment [1] was 20.1%; in experiment [2], -4.3%; in experiment [3] it was -7.2%. Further, the inhibition at 10 µM was 30.7% in experiment [1], 20.1% in experiment [2] and 6.5% in experiment [3].
